Data taken from article PMC5285354, “Cationic Net Charge and Counter Ion Type as Antimicrobial Activity Determinant Factors of Short Lipopeptides” (Frontiers in Microbiology, 2017).
≈ marks a conversion by molar mass, not a printed value. Read-outs that look alike come from different tables or passages of the source. Where a SMILES comes first, the peptide text is derived from it. The star is where a group is joined. Lauroyl = CCCCCCCCCCCC(=O)*

How the values were obtained:
Assay type in all cases: cell-based
[1] = tested on: Aspergillus brasiliensis (ATCC 16404); settings: ATCC 16404, 48 h
Method in brief: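 Lowest lipopeptide concentration (μg/mL) with no observable growth gave the MIC, alongside MBC/MFC, by CLSI microbroth dilution. Fungi: Sabouraud dextrose broth, 10^3 cfu/mL start, 25°C for 48 h; bacteria: MH broth, 10^5 cfu/mL, 37°C for 18 h. Run in triplicate, three separate days.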

[2] = tested on: Bacillus subtilis (ATCC 6633); settings: for MIC Bacillus subtillis: ATCC 6633, 18 h; for MBC Bacillus subtillis: ATCC 6633, 24 h
Method in brief: (§1)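 Broth microdilution per CLSI: Mueller-Hinton broth, 10^5 cfu/mL inoculum, 18 h at 37°C for bacteria; Sabouraud dextrose broth, 10^3 cfu/mL, 48 h at 25°C for fungi. MIC (μg/mL) is the lowest lipopeptide concentration inhibiting visible growth; MBC/MFC also determined. Triplicate on three days.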

[3] = tested on: Candida albicans (ATCC 10231); settings: ATCC 10231, 48 h
Method in brief: as §1

[4] = tested on: Candida tropicalis (PCM 2681); settings: PCM 2681, 48 h
Method in brief: as §1

[5] = tested on: Enterococcus faecalis (ATCC 29212); settings: for MIC Enterococcus fecalis: ATCC 29212, 18 h; for MBC Enterococcus fecalis: ATCC 29212, 24 h
Method in brief: as §1

[6] = tested on: Escherichia coli (ATCC 25922); settings: for MIC Escherichia coli: ATCC 25922, 18 h; for MBC Escherichia coli: ATCC 25922, 24 h
Method in brief: as §1

[7] = tested on: Klebsiella pneumoniae (ATCC 700603); settings: for MIC Klebsiella pneumoniae: ATCC 700603, 18 h; for MBC Klebsiella pneumoniae: ATCC 700603, 24 h
Method in brief: as §1

[8] = tested on: Proteus vulgaris (PCM 2668); settings: for MBC Proteus vulgaris: subculture on Mueller-Hinton II Agar, 24 h 37°C
Method in brief: as §1

[9] = tested on: Pseudomonas aeruginosa (ATCC 9027); settings: ATCC 9027, 18 h
Method in brief: as §1

[10] = tested on: Staphylococcus aureus (ATCC 25923); settings: for MIC Staphylococcus aureus: ATCC 25923, 18 h; for MBC Staphylococcus aureus: ATCC 25923, 24 h
Method in brief: as §1

[11] = tested on: Staphylococcus epidermidis (PCM 2118); settings: for MIC Staphylococcus epidermidis: PCM 2118, 18 h; for MBC Staphylococcus epidermidis: PCM 2118, 24 h
Method in brief: as §1

[12] = tested on: human red blood cells; settings: 1 h
Description: The hemolytic activity of the lipopeptides was determined by exposing human red blood cells (4% v/v) to tested compounds at graded concentrations. Red blood cells were obtained from a healthy donor. EDTA was used to prevent the blood clotting. The plasma was removed via centrifugation and the erythrocytes were washed three times with PBS. The red blood cells were suspended in PBS and incubated with different concentrations of lipopeptides at 37°C for 1 h and centrifuged for 5 min at 1000 × g. The supernatants were transferred to a sterile 96-well plate and hemoglobin release was measured with an Epoch microplate spectrophotometer (BioTek, USA) by recording the absorbance at 550 nm. A 0.1% Triton X-100 solution was used as the positive control (100% of hemolysis) and pure PBS as the negative (0% of hemolysis). Minimum hemolytic concentration (MHC) was taken as the lowest concentration which induced 10% of hemolysis.

[13] = tested on: Pseudomonas aeruginosa (ATCC 9027); settings: ATCC 9027, 24 h

Row | MIC Aspergillus brasiliensis [1] | MIC Bacillus subtillis [2] | MIC Candida albicans [3] | MIC Candida tropicalis [4] | MIC Enterococcus fecalis [5] | MIC Escherichia coli [6] | MIC Klebsiella pneumoniae [7] | MIC Pseudomonas aeruginosa [9] | MIC Staphylococcus aureus [10] | MIC Staphylococcus epidermidis [11] | Compound | MFC Aspergillus brasiliensis [1] | MBC Bacillus subtillis [2] | MFC Candida albicans [3] | MFC Candida tropicalis [4] | MBC Enterococcus fecalis [5] | MBC Escherichia coli [6] | MBC Klebsiella pneumoniae [7] | MBC Proteus vulgaris ([8]; PCM 2668, TFA salt, triplicate) | MBC Staphylococcus aureus [10] | MBC Staphylococcus epidermidis [11] | further results
1 | 256 µg/mL (≈ 782 µM) | 128 µg/mL (≈ 391 µM) | 256 µg/mL (≈ 782 µM) | 256 µg/mL (≈ 782 µM) | 256 µg/mL (≈ 782 µM) | 256 µg/mL (≈ 782 µM) | 256 µg/mL (≈ 782 µM) | 128 µg/mL (≈ 391 µM) | 256 µg/mL (≈ 782 µM) | 128 µg/mL (≈ 391 µM) | CCCCCCCCCCCC(=O)N[C@@H](CCCCN)C(N)=O [C12-K-NH2] | 512 µg/mL (≈ 1560 µM) | 256 µg/mL (≈ 782 µM) | 512 µg/mL (≈ 1560 µM) | 512 µg/mL (≈ 1560 µM) | 256 µg/mL (≈ 782 µM) | 256 µg/mL (≈ 782 µM) | 256 µg/mL (≈ 782 µM) | >1000 µg/mL | 256 µg/mL (≈ 782 µM) | 128 µg/mL (≈ 391 µM) | MIC Proteus vulgaris ([8]; 18 h): >512 µg/mL; Hemolysis HC10 (MHC), concentration of lipopeptide inducing 10% of hemolysis [12]: 1000 µg/mL; MBC Pseudomonas aeruginosa [13]: 256 µg/mL (≈ 782 µM)
2 | 256 µg/mL (≈ 666 µM) | 128 µg/mL (≈ 333 µM) | 512 µg/mL (≈ 1330 µM) | 512 µg/mL (≈ 1330 µM) | 256 µg/mL (≈ 666 µM) | 256 µg/mL (≈ 666 µM) | 256 µg/mL (≈ 666 µM) | 256 µg/mL (≈ 666 µM) | 256 µg/mL (≈ 666 µM) | 128 µg/mL (≈ 333 µM) | CCCCCCCCCCCC(=O)N[C@@H](CCCCN)C(=O)NCC(N)=O [C12-KG-NH2] (Lauroyl-Lys-Gly-NH2) | 512 µg/mL (≈ 1330 µM) | 256 µg/mL (≈ 666 µM) | 512 µg/mL (≈ 1330 µM) | 512 µg/mL (≈ 1330 µM) | 256 µg/mL (≈ 666 µM) | 512 µg/mL (≈ 1330 µM) | 512 µg/mL (≈ 1330 µM) | >2000 µg/mL | 512 µg/mL (≈ 1330 µM) | 128 µg/mL (≈ 333 µM) | Hemolysis HC10 (MHC), concentration of lipopeptide inducing 10% of hemolysis [12]: 1000 µg/mL; MBC Pseudomonas aeruginosa [13]: 512 µg/mL (≈ 1330 µM)
3 | 1000 µg/mL (≈ 1760 µM) | 64 µg/mL (≈ 112 µM) | 1000 µg/mL (≈ 1760 µM) | 1000 µg/mL (≈ 1760 µM) | 512 µg/mL (≈ 899 µM) | 2000 µg/mL (≈ 3510 µM) | 2000 µg/mL (≈ 3510 µM) | 1000 µg/mL (≈ 1760 µM) | 2000 µg/mL (≈ 3510 µM) | 256 µg/mL (≈ 449 µM) | CCCCCCCCCCCC(=O)N[C@@H](CCCCN)C(=O)NCC(=O)N[C@@H](CCCCN)C(=O)NCC(N)=O [C12-KGKG-NH2] (Lauroyl-KGKG-NH2) | 1000 µg/mL (≈ 1760 µM) | 64 µg/mL (≈ 112 µM) | 2000 µg/mL (≈ 3510 µM) | 2000 µg/mL (≈ 3510 µM) | 512 µg/mL (≈ 899 µM) | 2000 µg/mL (≈ 3510 µM) | 2000 µg/mL (≈ 3510 µM) | >2000 µg/mL | 2000 µg/mL (≈ 3510 µM) | 512 µg/mL (≈ 899 µM) | MIC Proteus vulgaris ([8]; PCM 2668, TFA salt, Mueller-Hinton broth, 10^5 cfu/mL, 18 h 37°C, triplicate): >2000 µg/mL; Hemolysis HC10 (MHC), concentration of lipopeptide inducing 10% of hemolysis [12]: 256 µg/mL; MBC Pseudomonas aeruginosa [13]: 1000 µg/mL (≈ 1760 µM)
